The source of these data is ChEMBL document CHEMBL4387728, “Synthetic glycopeptides reveal specific binding pattern and conformational change at O-mannosylated position of α-dystroglycan by POMGnT1 catalyzed GlcNAc modification” (Bioorg Med Chem, 2019).

Calls of active or inactive are those of the source. The rule behind the calls is not given here. Peptide text beside a SMILES is read from it. * marks the point of attachment. X1 = CC(=O)N[C@H]1[C@H](O[C@H]2[C@@H](O)[C@H](O)[C@@H](CO)O[C@@H]2*)O[C@H](CO)[C@@H](O[C@@H]2O[C@H](CO)[C@H](O)[C@H](O[C@]3(C(=O)O)C[C@H](O)[C@@H](NC(C)=O)[C@H]([C@H](O)[C@H](O)CO)O3)[C@H]2O)[C@@H]1O; X2 = CC(=O)N[C@H]1[C@H](O[C@H]2[C@@H](O)[C@H](O)[C@@H](CO)O[C@@H]2*)O[C@H](CO)[C@@H](O[C@@H]2O[C@H](CO)[C@H](O)[C@H](O)[C@H]2O)[C@@H]1O; Hexanoyl(5-oxo) = CC(=O)CCCC(=O)*

The target of assay [1] is Laminin subunit alpha-1 (Homo sapiens) (UniProt P25391). Briefly: Binding affinity to biotin-labeled human recombinant laminin-1 at 10 ug/ml in pH 7.4 Tris buffer by fluorescence microarray method.
Chain of Laminin subunit alpha-1 (Homo sapiens) (P25391 whole entry): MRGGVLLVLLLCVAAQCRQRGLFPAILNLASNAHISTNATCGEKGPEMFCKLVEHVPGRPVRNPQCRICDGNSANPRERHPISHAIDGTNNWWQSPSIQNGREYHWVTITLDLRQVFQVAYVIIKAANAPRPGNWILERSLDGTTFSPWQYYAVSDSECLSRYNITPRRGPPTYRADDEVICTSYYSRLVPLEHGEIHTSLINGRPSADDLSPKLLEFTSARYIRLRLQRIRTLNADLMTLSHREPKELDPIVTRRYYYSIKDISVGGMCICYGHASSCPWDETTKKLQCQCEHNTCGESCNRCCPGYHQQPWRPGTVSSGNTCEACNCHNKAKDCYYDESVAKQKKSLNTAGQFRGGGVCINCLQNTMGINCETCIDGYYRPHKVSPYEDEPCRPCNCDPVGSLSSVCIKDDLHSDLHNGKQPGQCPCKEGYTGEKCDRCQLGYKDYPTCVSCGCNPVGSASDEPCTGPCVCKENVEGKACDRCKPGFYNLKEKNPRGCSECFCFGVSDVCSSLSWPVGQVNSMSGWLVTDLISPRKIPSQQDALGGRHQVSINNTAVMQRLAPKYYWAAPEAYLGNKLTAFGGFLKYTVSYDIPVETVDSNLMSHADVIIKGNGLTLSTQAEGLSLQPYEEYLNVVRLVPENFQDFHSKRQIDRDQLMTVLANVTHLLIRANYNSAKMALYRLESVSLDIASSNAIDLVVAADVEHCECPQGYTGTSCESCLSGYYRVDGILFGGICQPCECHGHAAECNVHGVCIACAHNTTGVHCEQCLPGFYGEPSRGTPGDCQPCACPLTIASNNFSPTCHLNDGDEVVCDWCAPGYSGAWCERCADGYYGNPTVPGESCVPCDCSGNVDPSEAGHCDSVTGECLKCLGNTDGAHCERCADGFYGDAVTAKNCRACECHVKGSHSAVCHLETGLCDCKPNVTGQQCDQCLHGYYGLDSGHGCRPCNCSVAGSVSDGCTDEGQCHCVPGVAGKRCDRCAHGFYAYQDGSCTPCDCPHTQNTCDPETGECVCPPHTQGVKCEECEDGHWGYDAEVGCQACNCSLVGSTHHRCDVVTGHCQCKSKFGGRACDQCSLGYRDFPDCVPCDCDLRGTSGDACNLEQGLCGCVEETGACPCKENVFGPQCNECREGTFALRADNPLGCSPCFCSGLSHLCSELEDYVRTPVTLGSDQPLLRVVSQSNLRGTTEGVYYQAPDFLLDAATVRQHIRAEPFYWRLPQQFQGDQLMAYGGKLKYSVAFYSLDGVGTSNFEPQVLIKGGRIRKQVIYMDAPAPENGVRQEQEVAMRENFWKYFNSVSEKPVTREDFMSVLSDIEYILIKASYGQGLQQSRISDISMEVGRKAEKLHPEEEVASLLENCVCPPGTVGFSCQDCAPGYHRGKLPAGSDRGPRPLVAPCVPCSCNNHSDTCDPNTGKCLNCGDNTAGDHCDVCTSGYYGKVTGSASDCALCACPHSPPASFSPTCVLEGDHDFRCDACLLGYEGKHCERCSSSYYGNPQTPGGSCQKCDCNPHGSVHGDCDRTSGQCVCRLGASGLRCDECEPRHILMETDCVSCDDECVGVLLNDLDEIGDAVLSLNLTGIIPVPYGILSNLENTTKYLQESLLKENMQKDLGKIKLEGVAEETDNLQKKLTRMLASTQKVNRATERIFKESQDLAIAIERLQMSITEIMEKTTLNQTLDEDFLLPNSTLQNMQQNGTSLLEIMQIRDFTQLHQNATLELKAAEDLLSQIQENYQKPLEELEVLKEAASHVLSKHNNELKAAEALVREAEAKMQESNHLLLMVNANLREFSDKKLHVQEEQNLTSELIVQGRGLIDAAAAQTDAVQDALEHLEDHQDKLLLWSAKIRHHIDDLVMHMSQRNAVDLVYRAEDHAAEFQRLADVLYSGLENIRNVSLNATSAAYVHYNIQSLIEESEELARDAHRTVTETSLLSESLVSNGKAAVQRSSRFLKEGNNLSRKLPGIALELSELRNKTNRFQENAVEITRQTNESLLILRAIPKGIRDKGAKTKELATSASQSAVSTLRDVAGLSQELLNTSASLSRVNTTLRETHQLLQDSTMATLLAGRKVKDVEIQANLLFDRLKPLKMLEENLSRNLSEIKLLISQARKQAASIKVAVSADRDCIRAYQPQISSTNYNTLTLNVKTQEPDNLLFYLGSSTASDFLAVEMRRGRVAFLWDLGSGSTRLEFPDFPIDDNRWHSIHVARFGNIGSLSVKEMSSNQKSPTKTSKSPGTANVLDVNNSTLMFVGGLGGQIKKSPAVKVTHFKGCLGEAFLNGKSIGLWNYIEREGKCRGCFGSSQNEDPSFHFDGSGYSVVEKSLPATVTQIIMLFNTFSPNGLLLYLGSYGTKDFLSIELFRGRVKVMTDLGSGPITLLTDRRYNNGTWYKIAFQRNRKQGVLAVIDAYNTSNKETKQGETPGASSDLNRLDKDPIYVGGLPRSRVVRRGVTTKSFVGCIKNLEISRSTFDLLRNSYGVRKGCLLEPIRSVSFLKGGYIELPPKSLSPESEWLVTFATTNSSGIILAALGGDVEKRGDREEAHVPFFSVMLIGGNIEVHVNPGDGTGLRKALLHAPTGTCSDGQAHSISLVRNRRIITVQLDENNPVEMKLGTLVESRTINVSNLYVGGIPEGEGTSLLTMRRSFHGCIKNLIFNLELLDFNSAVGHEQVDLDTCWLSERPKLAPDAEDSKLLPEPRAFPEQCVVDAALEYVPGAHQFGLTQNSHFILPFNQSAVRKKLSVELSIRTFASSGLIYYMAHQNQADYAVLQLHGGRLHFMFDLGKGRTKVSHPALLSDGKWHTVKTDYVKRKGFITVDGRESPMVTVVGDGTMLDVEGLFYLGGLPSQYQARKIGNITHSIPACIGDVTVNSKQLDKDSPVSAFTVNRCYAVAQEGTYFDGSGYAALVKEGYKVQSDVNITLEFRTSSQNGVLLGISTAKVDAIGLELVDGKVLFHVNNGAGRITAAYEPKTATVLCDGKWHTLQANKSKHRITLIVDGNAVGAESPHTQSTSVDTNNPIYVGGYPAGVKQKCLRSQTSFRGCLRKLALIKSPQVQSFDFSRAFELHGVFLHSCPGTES
The nature of assay [2]: Binding affinity to biotin-labeled Agaricus bisporus agglutinin in pH 7.4 Tris buffer by fluorescence microarray method.
A further assay concerns Triticum aestivum. Briefly: Binding affinity to biotin-labeled Wheat germ agglutinin in pH 7.4 Tris buffer by fluorescence microarray method.
The next assay relates to Erythrina crista-galli. Briefly: Binding affinity to biotin-labeled Erythrina crista-galli agglutinin in pH 7.4 Tris buffer by fluorescence microarray method.
The species named for assay [3] is Homo sapiens. Briefly: Binding affinity to biotin-labeled human recombinant laminin-2 at 10 ug/ml in 5.6 MES buffer by fluorescence microarray method.
The target in assay [4] is Lactotransferrin (Homo sapiens) (UniProt P02788). In words: Binding affinity to biotin-labeled lactoferrin (unknown origin) at 10 ug/ml in pH 7.4 Tris buffer by fluorescence microarray method.
Chain of Lactotransferrin (Homo sapiens) (P02788 whole entry): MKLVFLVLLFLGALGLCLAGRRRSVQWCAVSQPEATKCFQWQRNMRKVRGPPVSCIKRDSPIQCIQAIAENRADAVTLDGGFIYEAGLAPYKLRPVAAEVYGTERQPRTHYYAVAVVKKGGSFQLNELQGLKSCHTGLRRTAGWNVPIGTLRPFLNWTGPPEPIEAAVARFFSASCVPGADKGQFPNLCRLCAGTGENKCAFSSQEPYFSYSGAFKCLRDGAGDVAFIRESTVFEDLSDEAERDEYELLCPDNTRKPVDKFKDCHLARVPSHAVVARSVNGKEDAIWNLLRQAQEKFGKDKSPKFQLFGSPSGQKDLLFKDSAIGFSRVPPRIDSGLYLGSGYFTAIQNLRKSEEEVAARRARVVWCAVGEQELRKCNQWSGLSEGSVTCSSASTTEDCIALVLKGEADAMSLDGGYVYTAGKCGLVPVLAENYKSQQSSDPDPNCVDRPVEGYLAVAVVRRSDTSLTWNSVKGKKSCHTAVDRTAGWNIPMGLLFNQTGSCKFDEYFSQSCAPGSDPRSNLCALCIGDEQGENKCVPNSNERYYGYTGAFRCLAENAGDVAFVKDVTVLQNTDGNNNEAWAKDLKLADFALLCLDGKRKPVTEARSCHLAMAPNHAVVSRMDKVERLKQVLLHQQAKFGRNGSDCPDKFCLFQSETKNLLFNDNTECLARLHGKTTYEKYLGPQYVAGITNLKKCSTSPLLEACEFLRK
The subject of the next assay is Datura stramonium. Briefly: Binding affinity to biotin-labeled Datura stramonium agglutinin in pH 7.4 Tris buffer by fluorescence microarray method.
The species named for assay [5] is Homo sapiens. In words: Binding affinity to biotin-labeled human recombinant laminin-2 at 10 ug/ml in pH 7.4 Tris buffer by fluorescence microarray method.
The target in assay [6] is Laminin subunit alpha-1 (Homo sapiens) (UniProt P25391). Briefly: Binding affinity to biotin-labeled human recombinant laminin-1 at 10 ug/ml in pH 5.6 MES buffer by fluorescence microarray method.
The next assay deals with Arachis hypogaea. Briefly: Binding affinity to biotin-labeled Arachis hypogaea agglutinin in pH 7.4 Tris buffer by fluorescence microarray method.
The target of assay [7] is Lactotransferrin (Homo sapiens) (UniProt P02788). Briefly: Binding affinity to biotin-labeled lactoferrin (unknown origin) at 10 ug/ml in pH 5.6 MES buffer by fluorescence microarray method.
For the next assay, the system named is Maackia amurensis. Briefly: Binding affinity to biotin-labeled Maackia amurensis agglutinin in pH 7.4 Tris buffer by fluorescence microarray method.
Assay [8] relates to Sambucus racemosa subsp. sieboldiana. Briefly: Binding affinity to biotin-labeled Sambucus sieboldiana agglutinin in pH 7.4 Tris buffer by fluorescence microarray method.
In the next assay the test system is Canavalia ensiformis. Briefly: Binding affinity to biotin-labeled Canavalia ensiformis agglutinin in pH 7.4 Tris buffer by fluorescence microarray method.

`CC[C@H](C)[C@H](NC(=O)[C@H](C)NC(=O)CNC(=O)[C@H](CCCNC(=N)N)NC(=O)[C@@H](NC(=O)CCCC(C)=O)[C@@H](C)O)C(=O)N[C@H](C(=O)N[C@@H](CCC(N)=O)C(=O)N[C@H](C(=O)N1CCC[C@H]1C(=O)N[C@H](C(=O)N[C@@H](CC(C)C)C(=O)NCC(=O)N1CCC[C@H]1C(=O)N[C@H](C(=O)N[C@@H](CCC(N)=O)C(=O)N1CCC[C@H]1C(=O)N[C@H](C(=O)N[C@@H](CCCNC(=N)N)C(=O)N[C@H](C(N)=O)C(C)C)[C@@H](C)O[C@H]1O[C@H](CO)[C@@H](O)[C@H](O)[C@@H]1O[C@@H]1O[C@H](CO)[C@@H](O[C@@H]2O[C@H](CO)[C@H](O)[C@H](O)[C@H]2O)[C@H](O)[C@H]1NC(C)=O)[C@@H](C)CC)[C@@H](C)O[C@H]1O[C@H](CO)[C@@H](O)[C@H](O)[C@@H]1O[C@@H]1O[C@H](CO)[C@@H](O[C@@H]2O[C@H](CO)[C@H](O)[C@H](O[C@]3(C(=O)O)C[C@H](O)[C@@H](NC(C)=O)[C@H]([C@H](O)[C@H](O)CO)O3)[C@H]2O)[C@H](O)[C@H]1NC(C)=O)[C@@H](C)O)[C@@H](C)CC` ({Hexanoyl(5-oxo)}-TRGAIIQTPT(X1)LGPIQPT(X2)RV-NH2): the outcome (in assay [1]; in [2]; in the assay on Triticum aestivum; in the assay on Erythrina crista-galli; in the assay listed under Homo sapiens [3]; in [6]) was Active. In addition, the outcome (with Arachis hypogaea; in assay [7]; in assay [8]; with Canavalia ensiformis) was Active. The result (in [4]; in the assay with Datura stramonium; in the assay listed under Homo sapiens [5]; in the assay on Maackia amurensis) was inactive.

In the case of `CC[C@H](C)[C@H](NC(=O)[C@H](C)NC(=O)CNC(=O)[C@H](CCCNC(=N)N)NC(=O)[C@@H](NC(=O)CCCC(C)=O)[C@@H](C)O)C(=O)N[C@H](C(=O)N[C@@H](CCC(N)=O)C(=O)N[C@H](C(=O)N1CCC[C@H]1C(=O)N[C@H](C(=O)N[C@@H](CC(C)C)C(=O)NCC(=O)N1CCC[C@H]1C(=O)N[C@H](C(=O)N[C@@H](CCC(N)=O)C(=O)N1CCC[C@H]1C(=O)N[C@H](C(=O)N[C@@H](CCCNC(=N)N)C(=O)N[C@H](C(N)=O)C(C)C)[C@@H](C)O)[C@@H](C)CC)[C@@H](C)O[C@H]1O[C@H](CO)[C@@H](O)[C@H](O)[C@@H]1O[C@@H]1O[C@H](CO)[C@@H](O[C@@H]2O[C@H](CO)[C@H](O)[C@H](O)[C@H]2O)[C@H](O)[C@H]1NC(C)=O)[C@@H](C)O)[C@@H](C)CC` ({Hexanoyl(5-oxo)}-TRGAIIQTPT(X2)LGPIQPTRV-NH2), the outcome (in assay [1]; in assay [2]; in the assay with Triticum aestivum; in the assay with Erythrina crista-galli; in the assay filed under Homo sapiens [3]; in [6]) was Active. For the same molecule, the outcome (in the assay on Arachis hypogaea; in [7]; in [8]; in the assay on Canavalia ensiformis) was Active. Further, the result (in assay [4]; in the assay on Datura stramonium; in the assay filed under Homo sapiens [5]; with Maackia amurensis) was inactive.
